Reference: PMC3578011 (Journal of neurochemistry, 2013)
Entries after “also recorded” stand apart in the source; their conditions may differ.

Experiments:
CB1 [1] = target: T1, CB1 (Homo sapiens, UniProt P21554); conditions: for time of maximal ERK1/2 phosphorylation: 0.5 µM CP55,940 or 3.2 µM ICAM-b
CB1 wild-type receptor = CB1 wild-type receptor (Homo sapiens, UniProt P21554); test: [35S]GTPγS binding assay; format: biochemical
CB1 [2] = target: T1, CB1; test: Radioligand binding assay, cooperativity with [3H]CP55,940; conditions: for cooperativity factor (α): from [3H]CP55,940 binding curves, membranes of HEK293 cells expressing CB1
CB1 [3] = target: T1, CB1; test: Radioligand binding assay, cooperativity with [3H]SR141716A; conditions: for effect on [3H]SR141716A binding: in the concentration range tested
[4] = Solubility in organic solvents; format: physicochemical; conditions: except tetrahydrofuran (THF)
CB1 [5] = target: T1, CB1; format: binding; conditions: in the presence of ICAM-b

T1 sequence (P21554 whole entry): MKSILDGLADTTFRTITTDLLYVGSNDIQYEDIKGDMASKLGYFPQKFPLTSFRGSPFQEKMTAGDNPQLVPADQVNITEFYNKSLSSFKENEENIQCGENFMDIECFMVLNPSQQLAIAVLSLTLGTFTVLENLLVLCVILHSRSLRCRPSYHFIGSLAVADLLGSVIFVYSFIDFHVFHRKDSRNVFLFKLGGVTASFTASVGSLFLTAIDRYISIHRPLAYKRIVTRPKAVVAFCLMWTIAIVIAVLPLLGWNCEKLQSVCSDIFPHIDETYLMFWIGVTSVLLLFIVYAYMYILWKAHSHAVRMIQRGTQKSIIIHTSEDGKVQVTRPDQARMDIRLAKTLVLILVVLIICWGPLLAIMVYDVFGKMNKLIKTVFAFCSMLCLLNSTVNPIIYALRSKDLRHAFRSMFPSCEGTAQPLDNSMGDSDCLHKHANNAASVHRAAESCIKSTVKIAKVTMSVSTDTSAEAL
CB1 wild-type receptor, sequence (P21554 whole entry): as above

| Structure (SMILES) | time of maximal ERK1/2 phosphorylation (CB1 [1]; HEK293 cells expressing CB1) [min] | Emax of CP55,940-induced [35S]GTPγS binding (CB1 wild-type receptor; in the absence of ICAM-b) [fmol/mg] | Kb (CB1 [2]) [µM] | cooperativity factor (α) (CB1 [2]) | effect on [3H]SR141716A binding (CB1 [3]) | solubility in common organic solvents [4] | transient ERK1/2 phosphorylation compared with CP55,940 alone (CB1 [1]; ICAM-b alone, control siRNA, HEK293 cells expressing CB1) | effect of β-arrestin 2 siRNA on patterns of ERK1/2 phosphorylation (CB1 [1]; compared to control siRNA transfection) | Bmax changes for CP55,940 and SR141716A (CB1 [5]) | cooperativity factor (α) (CB1 [3]; [3H]SR141716A as tracer, membranes of HEK293 cells expressing CB1) | inhibition of CP55,940-induced [35S]GTPγS binding (CB1 wild-type receptor; 3.2 µM ICAM-b) | [35S]GTPγS binding level (CB1 wild-type receptor; 3.2 µM ICAM-b, basal level 50.1 fmol/mg) [fmol/mg] | Emax of CP55,940-induced [35S]GTPγS binding (CB1 wild-type receptor; in the presence of 0.32 µM ICAM-b) [fmol/mg] | Emax of CP55,940-induced [35S]GTPγS binding (CB1 wild-type receptor; in the presence of 1 µM ICAM-b) [fmol/mg] |
| --- | --- | --- | --- | --- | --- | --- | --- | --- | --- | --- | --- | --- | --- | --- |
| CCCCCCC(C)(C)c1ccc([C@@H]2C[C@H](O)CC[C@H]2CCCO)c(O)c1 [CP55,940, (1R,3R,4R)-3-[2-hydroxy-4-(1,1-dimethylheptyl)-phenyl]-4-(3-hydroxypropyl)cyclohexan-1-ol, reference compound] | 5 | 98.9 |  |  |  |  |  |  |  |  |  |  |  |  |
| CCc1c(C(=O)NCCc2ccc(N3CCCCC3)cc2)n(C)c2ccc(Cl)cc12 [ICAM-a, 5-chloro-3-ethyl-1-methyl-N-(4-(piperidin-1-yl)phenethyl)-1H-indole-2-carboxamide] |  |  | 5.78 | 11.9 | little effect; also recorded: no effect | poor |  |  |  |  |  |  |  |  |
| CCCCCc1c(C(=O)NCCc2ccc(N3CCCCC3)cc2)[nH]c2ccc(Cl)cc12 [ICAM-b, 5-chloro-3-pentyl-N-(4-(piperidin-1-yl)phenethyl)-1H-indole-2-carboxamide] | 5 |  |  | 17.6 | substantial decrease | poor | larger increase | did not alter | Negligible | 0.11 | complete inhibition | 42.1 | 78.7 | 59.3 |
